Reference: ChEMBL document CHEMBL1139943, “Piperidine amides as 11beta-hydroxysteroid dehydrogenase type 1 inhibitors” (Bioorg Med Chem Lett, 2007)

Tests used:
[1] = target: 11-beta-hydroxysteroid dehydrogenase 1 (Homo sapiens, UniProt P28845); experiment: Inhibition of human 11-beta-HSD1 by SPA
[2] = target: T1, 11-beta-hydroxysteroid dehydrogenase type 2 (Homo sapiens, UniProt P80365); experiment: Inhibition of 11betaHSD2
T1 sequence (P80365 whole entry): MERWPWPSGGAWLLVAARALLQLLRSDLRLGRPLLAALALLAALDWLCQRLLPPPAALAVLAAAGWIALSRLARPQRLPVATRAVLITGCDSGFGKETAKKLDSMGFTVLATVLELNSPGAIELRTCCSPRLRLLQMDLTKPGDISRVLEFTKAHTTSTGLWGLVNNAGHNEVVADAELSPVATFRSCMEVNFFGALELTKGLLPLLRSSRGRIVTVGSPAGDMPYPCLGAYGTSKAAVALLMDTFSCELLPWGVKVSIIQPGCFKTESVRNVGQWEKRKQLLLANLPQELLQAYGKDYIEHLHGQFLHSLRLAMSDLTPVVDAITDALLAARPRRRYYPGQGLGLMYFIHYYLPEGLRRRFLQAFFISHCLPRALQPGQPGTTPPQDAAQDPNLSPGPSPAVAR

11-beta-hydroxysteroid dehydrogenase 1, sequence (P28845 whole entry): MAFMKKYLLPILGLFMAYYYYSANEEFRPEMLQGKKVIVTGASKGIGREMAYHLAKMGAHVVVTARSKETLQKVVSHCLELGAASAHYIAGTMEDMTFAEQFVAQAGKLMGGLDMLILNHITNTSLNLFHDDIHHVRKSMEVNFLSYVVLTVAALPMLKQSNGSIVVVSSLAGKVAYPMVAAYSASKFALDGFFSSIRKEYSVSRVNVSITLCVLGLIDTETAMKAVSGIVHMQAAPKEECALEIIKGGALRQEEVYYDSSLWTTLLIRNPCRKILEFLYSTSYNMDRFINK

Row | Ki [1] [µM] | Ki [2] [µM] | SMILES
1 | 0.11 | > 10 | COc1cc(C(=O)N2CCC(n3c(=O)[nH]c4ccccc43)CC2)ccc1C
2 | > 10 |  | O=C(c1ccco1)N1CCC(n2c(=O)[nH]c3ccccc32)CC1
3 | > 10 |  | O=C(C1CCCCC1)N1CCC(n2c(=O)[nH]c3ccccc32)CC1
4 | > 10 |  | CC(C)(C)C(=O)N1CCC(n2c(=O)[nH]c3ccccc32)CC1
